Values quoted from earlier work as cited in patent US20030180354A1 (DR. REDDY'S LABORATORIES LIMITED, priority 2001, published 2003).

Settings: in man

Oral bioavailability: 64%
SMILES: CCOC(=O)C1=C(COCCN)NC(C)=C(C(=O)OC)C1c1ccccc1Cl (racemic) [Amlodipine, (±)-2-[(2-Aminoethoxy)methyl]-4-(2-chlorophenyl)-3-ethoxycarbonyl-5-methoxycarbonyl-6-methyl-1,4-dihydropyridine]
